These results are taken from patent US12583858B2 (Genentech, Inc., priority 2015, dated 2026).

The assay deals with T1, TDO2 (Homo sapiens, UniProt P48775).
T1 construct: decreased levels of NFK in SW48 cells (high TDO expressing cells)
T1 sequence (P48775 whole entry): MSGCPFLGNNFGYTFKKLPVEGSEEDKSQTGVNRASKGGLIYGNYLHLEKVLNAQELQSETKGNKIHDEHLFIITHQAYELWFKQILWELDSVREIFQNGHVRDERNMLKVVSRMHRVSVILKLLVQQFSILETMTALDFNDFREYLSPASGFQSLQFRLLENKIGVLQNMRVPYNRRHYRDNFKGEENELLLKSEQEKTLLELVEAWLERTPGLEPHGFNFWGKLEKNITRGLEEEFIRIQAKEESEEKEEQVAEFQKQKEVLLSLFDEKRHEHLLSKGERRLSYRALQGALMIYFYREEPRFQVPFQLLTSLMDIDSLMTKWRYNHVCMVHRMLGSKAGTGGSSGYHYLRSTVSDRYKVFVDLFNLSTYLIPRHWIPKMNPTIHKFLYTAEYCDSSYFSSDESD
Nature of the assay: TDO2 cell assay (NFK GreenScreen, SW48 cells). The following applies: SW48 cells (high TDO expressing), 200 uM tryptophan, 24 hours; Table 3; read-out: TDO2 Cell Fluor EC50. The class given is cell-based.
As a reminder, the EC50 is the concentration that produces a half-maximal response. In the case of `OC1c2cnnn2CCC1C1c2ccccc2-c2cncn21` (single isomer, unassigned) [Example 146b], the EC50 is above 25 µM.
Next, `CC(C)(C)OC(=O)N1CC2(CC(C3c4ccccc4-c4cncn43)C2O)C1` (single isomer, unassigned) [Example 41b, tert-butyl 7-hydroxy-6-(5H-imidazo[1,5-b]isoindol-5-yl)-2-azaspiro[3.3]heptane-2-carboxylate]: 0.8 µM; `N#Cc1cnn2c1[C@@H](O)[C@@H]([C@H]1c3ccccc3-c3cncn31)CC2` (single isomer, unassigned) [Example 156c]: 19 µM; `CS(=O)(=O)N1CCC(O)C(C2c3ccc(F)cc3-c3cncn32)C1` (single isomer, unassigned) [Example 118d]: above 25 µM.
In the case of `CC(=O)N1CCC(C2c3ccccc3-c3cncn32)C(O)C1` (single isomer, unassigned) [Example 09c, 1-(3-hydroxy-4-(5H-imidazo[5,1-a]isoindol-5-yl)piperidin-1-yl)ethan-1-one], the EC50 is above 25 µM.
For `O=S(=O)(C1CC1)N1CC[C@@H](O)[C@H]([C@@H]2c3ccccc3-c3cncn32)C1` (single isomer, unassigned) [Example 70d], the EC50 is above 25 µM.
In the case of `O[C@H]1CC[C@@H]1[C@@H]1c2ccccc2-c2cncn21` [Example 01c, (1S,2R)-2-((R)-5H-imidazo[5,1-a]isoindol-5-yl)cyclobutan-1-ol] it was above 25 µM.
In the case of `OC1CC2(COC2)C1C1c2ccccc2-c2cncn21` (single isomer, unassigned) [Example 87d] it was above 25 µM; in that of `CC1(C)OC(C)(C)C(C2c3ccccc3-c3cncn32)C1O` (single isomer, unassigned) [Example 84b], 0.067 µM.
Next, `OC(c1ccncc1)C1c2ccccc2-c2cncn21` (single isomer, unassigned) [Example 152d]: above 25 µM; `O=S(=O)(C1CC1)N1CC[C@@H](O)[C@H]([C@H]2c3ccccc3-c3cncn32)C1` (single isomer, unassigned) [Example 70b]: 1.1 µM.
Take `N#CC1(C(O)C2c3ccccc3-c3cncn32)CC1` (single isomer, unassigned) [Example 153a]: the EC50 worked out at 0.62 µM.
Turning to `OC1c2cccnc2CCC1C1c2ccc(F)cc2-c2cncn21` (single isomer, unassigned) [Example 169a], the EC50 was 0.21 µM.
In the case of `NS(=O)(=O)c1ccc2c(c1)C(O)C(C1c3ccccc3-c3cncn31)CC2` (single isomer, unassigned) [Example 105c] it was 0.077 µM; in that of `CN1CC[C@H]([C@H]2c3ccccc3-c3cncn32)[C@@H](O)C1` [Example 83a, (3R,4R)-4-[(5S)-5H-imidazo[4,3-a]isoindol-5-yl]-1-methylpiperidin-3-ol], above 25 µM.
Next, `NC(=O)c1nc2c(s1)CCC(C1c3ccccc3-c3cncn31)C2O` (single isomer, unassigned) [Example 149a]: 0.19 µM.
Next, `OC1c2nncn2CCC1C1c2ccccc2-c2cncn21` (single isomer, unassigned) [Example 146-1d]: 12 µM; `CC(C)C(O)C1c2ccccc2-c2cncn21` (single isomer, unassigned) [Example 51d]: 14 µM.
On to `CCS(=O)(=O)N1CCC(O)C(C2c3ccccc3-c3cncn32)C1` (single isomer, unassigned) [Example 15b], for which the EC50 was above 25 µM.
In the case of `OC1CC(CF)(CF)C1C1c2ccccc2-c2cncn21` (single isomer, unassigned) [Example 150b] it was 2.1 µM; in that of `O[C@H]1[C@H]([C@@H]2c3ccccc3-c3cncn32)CCCC1(F)F` (single isomer, unassigned) [Example 106c], 8.1 µM.
Regarding `N#Cc1cnc2c(c1)CCC(C1c3ccccc3-c3cncn31)C2O` (single isomer, unassigned) [Example 107a], the EC50 is 17 µM.
As to `CCS(=O)(=O)N1CCC2(CCC(C3c4ccccc4-c4cncn43)C2O)CC1` (single isomer, unassigned) [Example 76d], the EC50 was 15 µM.
In the case of `CS(=O)(=O)N1CCC(O)(C2c3ccccc3-c3cncn32)C1` (single isomer, unassigned) [Example 116b] it was 2.5 µM; in that of `O[C@@H]1c2cccn2CC[C@@H]1[C@@H]1c2ccccc2-c2cncn21` [Example 136b, (7R,8S)-7-((R)-5H-imidazo[5,1-a]isoindol-5-yl)-5,6,7,8-tetrahydroindolizin-8-ol], above 25 µM.
In the case of `CC(C)(C)OC(=O)N1CC2(CC(C3c4ccccc4-c4cncn43)C2O)C1` (single isomer, unassigned) [Example 41f, tert-butyl 7-hydroxy-6-(5H-imidazo[1,5-b]isoindol-5-yl)-2-azaspiro[3.3]heptane-2-carboxylate] it was 17 µM; in that of `Cn1cc2c(n1)[C@@H](O)[C@@H]([C@@H]1c3ccccc3-c3cncn31)CC2` (single isomer, unassigned) [Example 139-1c], above 25 µM; in that of `CS(=O)(=O)N1CCC2(CC1)CC(C1c3ccccc3-c3cncn31)C2O` (single isomer, unassigned) [Example 179d], 0.54 µM.
In the case of `O=S(=O)(C1CC1)N1CCC(C2c3ccccc3-c3cncn32)C(O)C1` (mixture of isomers) [Example 77b, (3S,4SR)-1-(cyclopropylsulfonyl)-4-((S)-5H-imidazo[5,1-a]isoindol-5-yl)piperidin-3-ol] it was 0.086 µM.
For the compound `NS(=O)(=O)N1CCC2(CC1)CC(C1c3ccccc3-c3cncn31)C2O` (single isomer, unassigned) [Example 181h], the EC50 was 11 µM.
Take `Cn1cc2c(n1)CCC(C1c3ccccc3-c3cncn31)C2O` (single isomer, unassigned) [Example 130h]: the EC50 is above 25 µM.
In the case of `OC1CCCC1C1c2ccc(F)cc2-c2cncn21` (single isomer, unassigned) [Example 20b] it was 0.43 µM; in that of `CC1(O)CCOCC1C1c2ccccc2-c2cncn21` (single isomer, unassigned) [Example 61b], 2.6 µM; in that of `N#Cc1ccc2c(c1)CCC(C1c3ccccc3-c3cncn31)C2O` (single isomer, unassigned) [Example 62d], 0.082 µM.
In the case of `CCS(=O)(=O)N1CC[C@H]([C@H]2c3ccccc3-c3cncn32)[C@@H](O)C1` [Example 16c, (3R,4R)-1-(ethylsulfonyl)-4-((S)-5H-imidazo[5,1-a]isoindol-5-yl)piperidin-3-ol] it was 5.7 µM.
In the case of `O[C@@H]1c2ccncc2CC[C@H]1[C@@H]1c2ccccc2-c2cncn21` (single isomer, unassigned) [Example 08f] it was 12 µM; in that of `CC1(C)CCC(C2c3ccccc3-c3cncn32)C1O` (single isomer, unassigned) [Example 23f], 2.7 µM.
`OC1CCCCCC1C1c2ccccc2-c2cncn21` (single isomer, unassigned) [Example 115b, 2-(5H-imidazo[5,1-a]isoindol-5-yl)cycloheptan-1-ol]: the EC50 is 3.4 µM.
Next, `CC(C)(C)OC(=O)N1CC2(CC(C3c4ccccc4-c4cncn43)C2O)C1` (single isomer, unassigned) [Example 41e, tert-butyl 7-hydroxy-6-(5H-imidazo[1,5-b]isoindol-5-yl)-2-azaspiro[3.3]heptane-2-carboxylate]: 0.62 µM.
In the case of `CCC(O)C1c2ccccc2-c2cncn21` (single isomer, unassigned) [Example 137a] it was above 25 µM; in that of `OC1CCCCCC1C1c2ccccc2-c2cncn21` (single isomer, unassigned) [Example 115a, 2-(5H-imidazo[5,1-a]isoindol-5-yl)cycloheptan-1-ol], 14 µM; in that of `O[C@@H]1c2c(F)cnn2CC[C@@H]1[C@@H]1c2ccccc2-c2cncn21` (single isomer, unassigned) [Example 151b], above 25 µM.
In the case of `NS(=O)(=O)N1CCC2(CC1)CC(C1c3ccccc3-c3cncn31)C2O` (single isomer, unassigned) [Example 181b] it was above 25 µM.
For `Cc1cnn2c1C(O)C(C1c3ccccc3-c3cncn31)CC2` (single isomer, unassigned) [Example 159d], the EC50 came out at 3.7 µM.
Next, `CS(=O)(=O)N1CCC[C@](O)([C@@H]2c3ccccc3-c3cncn32)C1` [Example 134a, (R)-3-((S)-5H-imidazo[5,1-a]isoindol-5-yl)-1-(methylsulfonyl)piperidin-3-ol]: 1.1 µM; `O[C@@H]1[C@@H]([C@H]2c3ccccc3-c3cncn32)CCCC1(F)F` (single isomer, unassigned) [Example 106d]: 0.93 µM; `O[C@H]1c2cccnc2CC[C@H]1[C@H]1c2ccccc2-c2cncn21` [Example 31h, (5R,6S)-6-((S)-5H-imidazo[5,1-a]isoindol-5-yl)-5,6,7,8-tetrahydroquinolin-5-ol]: 0.12 µM.
In the case of `Cc1cnn2c1C(O)C(C1c3ccccc3-c3cncn31)CC2` (single isomer, unassigned) [Example 159c] it was 0.25 µM; in that of `OC1c2cnncc2CCC1C1c2ccccc2-c2cncn21` (single isomer, unassigned) [Example 112e], above 25 µM; in that of `OC1c2nncn2CCC1C1c2ccccc2-c2cncn21` (single isomer, unassigned) [Example 146-1a], above 25 µM.
In the case of `OC1c2nccn2CCC1C1c2ccccc2-c2cncn21` (single isomer, unassigned) [Example 88a] it was above 25 µM; in that of `OC1COCCC1C1c2cccc(F)c2-c2cncn21` (single isomer, unassigned) [Example 99d], 0.73 µM; in that of `O[C@@H]1[C@@H]([C@@H]2c3ccccc3-c3cncn32)CCCC1(F)F` (single isomer, unassigned) [Example 106a], above 25 µM.
